In BindingDB's records for doi:10.1021/jm991038t (Max-Planck Research Unit, 1999):
pKi: −log10 of the molar value.

Test: Inhibition constant(Ki) for inhibition of PPIase activity of Legionella pneumophilia FK506 binding protein 25 (Conc=40 nM) of FKBPs family

Molecule `C[C@@H]1C[C@@H]([C@H](O)CC2CC(=O)NC(=O)C2)C(=O)[C@@H](C)C1` [Cycloheximid] has a pKi of 3.91.
